In patent US20240033237A1, “USE OF A-KETOGLUTARATE IN MANUFACTURE OF MEDICAMENT” (TONGJI UNIVERSITY, priority 2019, published 2024):

Tested on: chondrocytes
Assay: Amino acid content in chondrocytes upon IL-1β stimulation, LC-MS
Assay type: cell-based, mouse
Conditions: IL-1β treatment for 36 h, untreated 8740.24±584.31
Procedure: Mouse chondrocytes were obtained from 7-day-old C57BL/6 mice (Shanghai Slac laboratory animal Co., Ltd.), and the procedure was as follows: under aseptic surgical conditions, bilateral knee cartilages of C57 mice were carefully stripped and digested with 0.2% neutral collagenase (Serva, Germany) for 8 h; cell precipitates were obtained by centrifugation, and the cells were resuspended in modified Eagle medium (DMEM) (Gibco, USA) containing 10% FBS, inoculated in culture dishes, and cultured with high-sugar DMEM medium (containing 10% FBS, 100 U/mL penicillin and 100 mg/L streptomycin) at 37° C. in a 5% CO2 constant temperature incubator. The medium was changed for the first time at 48 h. […] The cells were collected by centrifugation and resuspended, and the concentration was adjusted for inoculation in culture dishes. The cells were subcultured by the above method, and the obtained cells were labeled as P1, P2, P3 generations, etc. […]
After being treated with IL-1β for 36 h, the chondrocytes were scraped off, and the changes of amino acid content in the chondrocytes were detected by LC-MS.

Substance: IL-1β: interleukin-1β used to stimulate chondrocytes
- Gln content in chondrocytes: 330±150.32 ng/10^7
